Assay results as given in the NIST ThermoML archive (doi:10.1016/j.fluid.2009.04.021).

Settings: 101.33 kPa, Liquid, Buoyancy - hydrostatic balance

CCCCn1cc[n+](C)c1.F[B-](F)(F)F [1-butyl-3-methylimidazolium tetrafluoroborate]
Settings	mass density [kg/m3]
281.45 K	1213.36
283.01 K	1212.07
288.41 K	1207.87
288.49 K	1207.91
293.2 K	1204.14
293.49 K	1204.59
298.19 K	1200.74
298.29 K	1200.69
303.04 K	1197.96
303.25 K	1196.93
308.02 K	1192.73
308.14 K	1193.22
312.86 K	1190.14
313.44 K	1190.35
318.17 K	1187.07
318.18 K	1185.49
323.04 K	1183.15
323.06 K	1184.13
327.58 K	1180.59
328.06 K	1179.55
332.87 K	1175.86
333.24 K	1177.1
337.9 K	1173.42
337.97 K	1172.99
342.78 K	1169.84
343.45 K	1170.2
347.5 K	1166.66
348.11 K	1166.78
350.81 K	1165.3
352.74 K	1163.68

CCn1cc[n+](C)c1.F[B-](F)(F)F [1-ethyl-3-methylimidazolium tetrafluoroborate]
Settings	mass density [kg/m3]
293.41 K	1287.17
298.14 K	1283.2
303.08 K	1279.88
307.94 K	1275.06
313 K	1271.88
318.7 K	1267.21
322.5 K	1265.05
328.4 K	1260.59
332.78 K	1257.46
338.22 K	1254.07
343.05 K	1251.15
347.97 K	1247.07
353.07 K	1243.6

CCCCCCn1cc[n+](C)c1.F[B-](F)(F)F [1-hexyl-3-methylimidazolium tetrafluoroborate]
Settings	mass density [kg/m3]
283.61 K	1166.71
288.57 K	1163.12
293.48 K	1159.99
298.22 K	1156.57
303.11 K	1152.91
308.16 K	1149.26
313.25 K	1146.23
318.33 K	1142.64
323 K	1139.57
328.63 K	1135.72
333.69 K	1132.53
338.15 K	1129.41
343.04 K	1126.12
348.26 K	1122.71
352.72 K	1119.68
